The test system of one test is cocaine reward. To be noted: literature data, cited from earlier work.
The subject of test [1] is cocaine locomotor activation. As to conditions: literature data, cited from earlier work.
The test system of the next test is cocaine taking. To be noted: literature data; cited from earlier work.
The test system of test [2] is STZ induced diabetic rats. To be noted: oral administration. As to the method:
(§1) Rats were fasted overnight and received a single intraperitoneal injection of streptozotocin (60 mg/kg, Sigma-Aldrich) in citrate buffer (pH 4.5) to induce type I diabetes. The induction of diabetes was confirmed 72 h after streptozotocin injection by measurement of blood glucose levels using Contour® blood glucose diagnostic kit (Bayer HealthCare, Canada). Body weight and blood glucose levels were measured before and 3 days after streptozotocin injection, once a week for three weeks after diabetes induction. Only rats having blood glucose concentration consistently higher than 300 mg/dl were used for the present study.
The treatment lasted for 8 days Note, n=5 for H2O and n=7 for RAP-103/each dose.
Tactile allodynia Mechanical sensitivity was assessed using calibrated von Frey hairs (7). Animals were placed in Plexiglas boxes on an elevated metal mesh floor and allowed 60 min for habituation before testing. A series of von Frey filaments with logarithmically incrementing stiffness was applied perpendicular to the mid-plantar region of the hind paw. The 50% paw withdrawal threshold was determined using Dixon's up-down method. Withdrawal thresholds of both paws were averaged as one single value per animal. Assessment on the effects of RAP103 on mechanical and cold allodynia was performed between 2-4 hours following the drug administration. […] All data were presented as means±SEM. […]

The subject of a further test is CCL2, CCL3.
Text: Because opioids are used in the management of pain conditions that contribute to OUD, we determined the efficacy of a small peptide chemokine receptor antagonist RAP-103 (all-D-TTNYT, SEQ ID #1, Table 1), sometimes called RAP-103 or R103) to reverse opioid receptor analgesic tolerance and block pain as a test of its ability to block-drug seeking behaviors. Painful diabetic neuropathy (PDN) is a common complication of diabetes which adversely affects patients' daily life, often involves opioid use, which creates an addiction risk. […] To test the hypothesis, we first used behavioral and molecular/cellular approaches to explore chronic pain development and inflammatory reaction in Streptozotocin (STZ) induced diabetic rats. […] CCL2 and CCL3 are two chemokines well known in mediating immune cell trafficking and immune response in the context of neuropathic pain.
as §1

Test [3] deals with opioid self-administration. As to conditions: rats, MOR 0.25 mg/kg/inf. From the text:
Rats were surgically prepared to have indwelling catheters prior to self-administration testing. To begin each session, house lights were turned on and two retractable levers extended into the chamber. […] A 20-s timeout period will follow each infusion to limit possibility of overdose. […] The dependent variable measured will be the number of infusions earned by the end of the session and defined as the breakpoint. Total cumulative responses made by the rat on the active lever during each session will also be recorded. Once rats reach criteria for stable PR responding, which is defined as 3 consecutive days of responding without upward or downward variance (<20% change from mean number of reinforcers earned for 3 consecutive days), R103 (0.02, 0.1, and 0.5 mg/kg) will be administered 15 min before daily SA sessions to assess effects on breaking point and to obtain dose-effect data for R103. A repeated-measures 2-way ANOVA (R103 treatment, sex) between-subjects design followed by a Bonferroni test was used.

Test [4] concerns streptozotocin (STZ) induced diabetic rats. As to the method:
as §1, with “study. […]” for “study.”
Tactile allodynia Mechanical sensitivity was assessed using calibrated von Frey hairs (7). Animals were placed in Plexiglas boxes on an elevated metal mesh floor and allowed 60 min for habituation before testing. A series of von Frey filaments with logarithmically incrementing stiffness was applied perpendicular to the mid-plantar region of the hind paw. The 50% paw withdrawal threshold was determined using Dixon's up-down method. Withdrawal thresholds of both paws were averaged as one single value per animal. Assessment on the effects of RAP103 on mechanical and cold allodynia was performed between 2-4 hours following the drug administration. […] All data were presented as means±SEM. Statistical analysis was performed by two-way ANOVA followed by Bonferroni post-tests. The criterion for statistical significance was P<0.05.

The next test relates to MOR-dependent rats. As to conditions: 0.5 mg/kg, naloxone 3 mg/kg SC on day 7, quantified for 60 min. As to the method: Opioid tolerance during chronic exposure requires increasing opioid doses to maintain analgesic efficacy. Physical dependence also develops during chronic opioid exposure and, upon discontinuation of opioid intake, presents as a withdrawal syndrome that triggers opioid relapse. We tested the effects of RAP-103 (0.5 mg/kg) on naloxone-precipitated withdrawal signs in MOR-dependent rats. To induce physical dependence we implanted opioid (heroine) containing pellets. On day 7 rats received naloxone (3 mg/kg, SC) with or without added RAP-103 and the withdrawal signs of wet dog shakes and eye blinking were quantified for 60 min.

Test [5] concerns cocaine induced locomotor behavior. To be noted: rats, 0.001, 0.01, 0.03 mg/kg, p.o., 30 min before cocaine 10 mgs/Kg. As to the method:
Locomotor activity (ambulation+stereotypy) induced by cocaine and the effect of RAP-103 was assessed using a Digiscan DMicro system. Following a 60-min habituation in activity chambers, rats were pretreated with RAP-103 (0.03, 0.01, 0.001 mgs/Kg) or vehicle 30 min before cocaine (10 mgs/Kg) or vehicle and activity was measured for 120 min. Differences between individual groups were determined with a Bonferroni post-hoc test. Statistical significance was set at p<0.05.

Test [6] addresses chemokine receptors CCR2/CCR5. The format is biochemical. To be noted: inhibition of chemokine receptors CCR2/CCR5; read-out: Potency EC50. From the text:
Table 1 illustrates the potencies of several peptides of the invention to inhibit chemokine receptors CCR2/CCR5. These receptor-active peptides (Receptides, abbreviated as RAP's) represent a novel, safe and non-addictive pharmacological intervention for substance abuse disorders by normalizing the neurobiology of addiction to suppress drug-seeking behaviors, reduce psychostimulant (cocaine, methamphetamine) activation and locomotion, and inhibit consumption of alcohol, other drugs of abuse and substance abuse in general. They may also treat depression and anxiety as those commonly occur in substance abuse. […] Decades-old treatments (methadone, buprenorphine etc.) require extended use, suffer from high recidivism, are only partly effective and are clearly inadequate. New treatments with no abuse liability, that blunt drug-seeking, dependence, and facilitate recovery and withdrawal are a priority need.

The mark [7] stands for this setting: STZ diabetic rats, oral administration for 7 days.

Like-named read-outs stand apart in the source and are kept apart here.

As to `c1cc(CN2CCCNCCNCCCNCC2)ccc1CN1CCCNCCNCCCNCC1` [AMD3100, Plerixafor], the “cocaine reward / conditioned place preference (CPP)” value is “inhibits cocaine reward” in the test on cocaine reward and “inhibits conditioned place preference (CPP)” in the test on cocaine reward (listed as AMD 3100). In test [1] (5, 10 mg/kg pretreatment), the “locomotor activation produced by an acute cocaine injection” value is listed as “reduced locomotor activation”. Further, the “locomotor activation produced by cocaine” value in test [1] is given as “inhibits”. Moreover, in the test on cocaine taking, the “cocaine taking in rat self-administration assays” value is recorded as “inhibits”.
For the compound Maraviroc, in the test on cocaine reward, the “cocaine reward / conditioned place preference (CPP)” value is listed as “reduces rewarding”. The “locomotor activation produced by cocaine” value in test [1] is listed as “reduces”.
TTNYT [SEQ ID No.: 1, all-D-TTNYT]: in test [2], the cold allodynia result is recorded as “reversed cold allodynia”. Moreover, in the test with CCL2, CCL3 (setting [7]), the “expression of chemokines and cytokines” value is “inhibited expression of chemokines and cytokines”. In the test on CCL2, CCL3 (STZ rats, 0.5 mg/kg, for 7 days, p.o., FIG. 3A), the “inflammation: CCL2 in the sciatic nerves” value was “significantly inhibited inflammation”. The “inflammation: CCL3 in the sciatic nerves” value in the test on CCL2, CCL3 (STZ rats, 0.5 mg/kg, for 7 days, p.o., FIG. 3B) was “significantly inhibited inflammation”. The “opioid self-administration by lever press for drug infusions” value in [3] is reported as “significantly inhibited opioid self-administration”. In test [3] (R103 0.02, 0.1, and 0.5 mg/kg 15 min before sessions), the “motivation to work for reinforcer (self-administer an opioid), progressive-ratio” value is listed as “significantly reduced”. In test [4] (setting [7]), the neuropathic pain entry is reported as “reduced neuropathic pain”. Further, in [4] (STZ induced diabetic rats, oral administration), the mechanical allodynia entry was “reversed mechanical allodynia”. The established hypersensitivity result in test [4] (STZ rats, 0.5-0.02 mg/Kg b.w., daily, for 7 days) is listed as “complete reversal of established hypersensitivity”. Also, the “naloxone precipitated withdrawal signs (wet dog shakes and eye blink)” value is given as “significantly inhibited naloxone precipitated withdrawal signs” with MOR-dependent rats (listed as RAP103) and “blocks naloxone-precipitated withdrawal signs” in the test with MOR-dependent rats (listed as RAP-103). Besides, the “cocaine induced locomotor behavior (locomotor activity counts)” value in test [5] (listed as RAP103) is “inhibited psychostimulant cocaine induced locomotor behavior”; in test [5] (listed as RAP-103), “blocks the locomotor inducing effects of cocaine”.
As for SSTYR [SEQ ID No.: 2], the EC50 in [6] was found to be 1 pM.
For `COc1ccc(C2(O)CCC(N3CC[C@@H](NC(=O)CNC(=O)c4cccc(C(F)(F)F)c4)C3)CC2)cn1` (some centres unmarked) [INCB 3284], the “cocaine reward / conditioned place preference (CPP)” value with cocaine reward is listed as “prevented psychostimulant-induced CPP”.
STNYT [SEQ ID No.: 3]: the concentration giving a half-maximal response (EC50) in test [6] came out at 3 pM.

For orientation: EC50 means the concentration giving half of the maximal effect.

The values above are taken from patent US12257283B2 (priority 2019, dated 2025).
